In US9994551B2, “Pyridazine derivatives as RORc modulators” (Genentech, Inc., priority 2015, dated 2018) one finds IC50 data, which are given here for eleven molecules.

The assay addresses T1, RORc ligand binding domain (Homo sapiens, UniProt P51449).
T1 construct: host or cells: E. coli
T1 sequence (P51449 269-508 limits assumed): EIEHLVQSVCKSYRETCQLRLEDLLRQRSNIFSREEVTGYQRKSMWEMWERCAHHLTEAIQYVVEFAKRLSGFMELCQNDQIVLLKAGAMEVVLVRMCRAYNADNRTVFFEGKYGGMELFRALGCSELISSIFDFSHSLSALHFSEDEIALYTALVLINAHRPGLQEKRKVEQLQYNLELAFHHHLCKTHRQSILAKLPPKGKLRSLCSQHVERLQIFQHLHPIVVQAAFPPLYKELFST
As to the kind of experiment: In vitro RORc ligand binding assay (25-[3H]hydroxycholesterol displacement, filter binding).

The molecule `CC1(C)[C@H]2CC[C@]1(C1CCC(=O)NC1)c1nnc(-c3c(F)cccc3F)cc12` (some centres unmarked) [Compound 116, 5-[5-(2,6-difluorophenyl)-11,11-dimethyl-3,4-diazatricyclo[6.2.1.02,7]undeca-2,4,6-trien-1-yl]piperidin-2-one] showed an IC50 of 74 nM.

In the case of `CC[C@H](CO)O[C@@]12CC[C@@H](c3cc(-c4c(F)cccc4F)nnc31)C2(C)C` [Compound 35, (R)-2-(((5S,8R)-3-(2,6-difluorophenyl)-9,9-dimethyl-5,6,7,8-tetrahydro-5,8-methanocinnolin-8-yl)oxy)butan-1-ol], the IC50 worked out at 19.8 nM.

The molecule `CC(C)(C)OC(=O)N1CCNC[C@H]1[C@@]12CC[C@@H](c3cc(-c4c(F)cccc4F)nnc31)C2(C)C` [Compound 115, tert-butyl 2-[5-(2,6-difluorophenyl)-11,11-dimethyl-3,4-diazatricyclo[6.2.1.02,7]undeca-2,4,6-trien-1-yl]piperazine-1-carboxylate] returned a half-inhibitory concentration (IC50) of 3.1 nM.

Take `CC1(C)[C@H]2CC[C@]1([C@H]1CN(C(=O)c3c[nH]c(=O)cn3)CCO1)c1nnc(-c3c(F)cccc3F)cc12` [Compound 119, 5-[2-[5-(2,6-difluorophenyl)-11,11-dimethyl-3,4-diazatricyclo[6.2.1.02,7]undeca-2,4,6-trien-1-yl]morpholine-4-carbonyl]-1H-pyrazin-2-one]: the IC50 came to 21 nM.

In the case of `CC1(C)[C@H]2CC[C@]1(Oc1cccnn1)c1nnc(-c3c(F)cccc3F)cc12` [Compound 16, (5S,8R)-3-(2,6-difluorophenyl)-9,9-dimethyl-8-(pyridazin-3-yloxy)-5,6,7,8-tetrahydro-5,8-methanocinnoline], the IC50 was 254 nM.

Take `CC1(C)[C@H]2CC[C@]1(Oc1ccccc1)c1nnc(-c3c(F)cccc3F)cc12` [Compound 24, (5S,8R)-3-(2,6-difluorophenyl)-9,9-dimethyl-8-phenoxy-5,6,7,8-tetrahydro-5,8-methanocinnoline]: the IC50 was determined as 14.4 nM.

On to `CN1CCNC[C@H]1[C@@]12CC[C@@H](c3cc(-c4c(F)cccc4F)nnc31)C2(C)C` [Compound 178, 5-(2,6-difluorophenyl)-11,11-dimethyl-1-(1-methylpiperazin-2-yl)-3,4-diazatricyclo[6.2.1.02,7]undeca-2,4,6-triene], for which the IC50 was 13 nM.

`CC1(C)[C@H]2CC[C@]1([C@@H]1CN(C3=NC(CO)CO3)CCO1)c1nnc(-c3c(F)cccc3F)cc12` (stereo in doubt) [Compound 140, [2-[2-[5-(2,6-difluorophenyl)-11,11-dimethyl-3,4-diazatricyclo[6.2.1.02,7]undeca-2,4,6-trien-1-yl]morpholin-4-yl]-4,5-dihydrooxazol-4-yl]methanol] had an IC50 of 7.6 nM.

`CC[C@@H](O[C@@]12CC[C@@H](c3cc(-c4c(F)cccc4F)nnc31)C2(C)C)c1nnc(CO)o1` [Compound 32, (5-((R)-1-(((5S,8R)-3-(2,6-difluorophenyl)-9,9-dimethyl-5,6,7,8-tetrahydro-5,8-methanocinnolin-8-yl)oxy)propyl)-1,3,4-oxadiazol-2-yl)methanol] had an IC50 of 5.7 nM.

In the case of `CC[C@@H](O[C@@]12CC[C@@H](c3cc(-c4c(F)cccc4F)nnc31)C2(C)C)C(=O)OC` [Compound 112, methyl (2R)-2-[[(1R,8S)-5-(2,6-difluorophenyl)-11,11-dimethyl-3,4-diazatricyclo[6.2.1.02,7]undeca-2,4,6-trien-1-yl]oxy]butanoate], the IC50 was 12 nM.

As to `Cc1noc(N2CCO[C@H]([C@@]34CC[C@@H](c5cc(-c6c(F)cccc6F)nnc53)C4(C)C)C2)n1` [Compound 84, (R)-2-((5R,8R)-3-(2,6-difluorophenyl)-9,9-dimethyl-5,6,7,8-tetrahydro-5,8-methanocinnolin-8-yl)-4-(3-methyl-1,2,4-oxadiazol-5-yl)morpholine], the IC50 amounted to 277 nM.
